Test results from US6479531B1, “Gastrin and cholecystokinin receptor ligands” (James Black Foundation Limited, priority 1998, dated 2002).
Where a name gives a salt, the structure may show the parent alone.

Legend:
[1] = target: T1, CCKB receptor (Mus musculus, UniProt P56481); experiment: CCKB receptor radioligand binding assay in mouse cortical membranes; settings: [125I]-CCK8(S) 200 pM, 150 min at 21±3°, read-out: CCKB pKi (converted)
T1 construct: The whole brains from male mice (CD1 22-25 g; Charles River) were removed; from tissue; host or cells: cerebral cortex membranes of male CD1 mice
T1 sequence (P56481 1-453): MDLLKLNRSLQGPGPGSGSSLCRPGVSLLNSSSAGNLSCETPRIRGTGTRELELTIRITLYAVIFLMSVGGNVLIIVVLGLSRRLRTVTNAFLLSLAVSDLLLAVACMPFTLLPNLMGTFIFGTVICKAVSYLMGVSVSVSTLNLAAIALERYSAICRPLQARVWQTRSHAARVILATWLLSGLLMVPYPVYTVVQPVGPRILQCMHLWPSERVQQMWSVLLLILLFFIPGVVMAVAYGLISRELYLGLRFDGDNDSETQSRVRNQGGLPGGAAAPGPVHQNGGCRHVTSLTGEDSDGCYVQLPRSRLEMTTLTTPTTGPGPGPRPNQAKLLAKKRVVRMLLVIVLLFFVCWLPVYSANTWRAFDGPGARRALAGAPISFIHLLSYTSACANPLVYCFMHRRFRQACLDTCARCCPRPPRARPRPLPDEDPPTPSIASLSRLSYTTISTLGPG
Procedure, shortened: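 Bound radioactivity was gamma-counted after rapid GF/B filtration and cold 50 mM Tris-HCl (pH 7.4) washes. The tissue was cerebral cortex from male CD1 mice, prepared as twice-centrifuged membranes in pH 7.2 HEPES/NaCl/KCl/MgCl2/EDTA buffer with bacitracin at 20 mg/ml original wet weight.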

[2] = target: T2, gastrin receptor (Rattus norvegicus, UniProt P30553); experiment: gastrin antagonist activity in immature rat stomach assay (pentagastrin dose-response, acid secretion); settings: isolated immature rat stomach, cumulative pentagastrin dose-response curves, read-out: Gastrin pKb (converted)
T2 construct: The stomach was excised and flushed with ca. 1 ml of unbuffered physiological saline solution; from tissue; host or cells: isolated whole stomach of immature rats (ca. 21 days old)
T2 sequence (P30553 1-452): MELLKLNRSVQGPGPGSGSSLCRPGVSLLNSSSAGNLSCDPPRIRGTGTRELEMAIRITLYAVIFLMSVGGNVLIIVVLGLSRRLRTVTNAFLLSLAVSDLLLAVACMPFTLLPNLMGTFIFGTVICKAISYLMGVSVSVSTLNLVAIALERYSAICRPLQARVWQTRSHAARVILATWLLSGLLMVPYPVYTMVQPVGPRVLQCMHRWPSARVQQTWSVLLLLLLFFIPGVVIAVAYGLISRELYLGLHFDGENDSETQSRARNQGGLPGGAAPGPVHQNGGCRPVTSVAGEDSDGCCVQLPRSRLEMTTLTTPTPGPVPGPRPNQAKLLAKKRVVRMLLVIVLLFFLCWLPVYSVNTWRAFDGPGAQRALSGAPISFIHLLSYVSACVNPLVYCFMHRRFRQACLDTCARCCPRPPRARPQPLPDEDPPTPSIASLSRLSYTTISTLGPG
Procedure, shortened: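 Isolated, lumen-perfused stomach from immature rats (33-50 g, ca. 21 days) in a 37° organ bath with 3×10^−8 M 5-methylfurmethide, gassed 95% O2/5% CO2. Compound added serosally after 120 min stabilisation; cumulative pentagastrin dose-response curves begun 60 min later, acid secretion followed by perfusate pH.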

| Ki [1] [nM] | Kb [2] [nM] | Compound |
| --- | --- | --- |
| 1020 | 741 | O=C(O)c1cccc(NC(=O)c2nc(CC34CC5CC(CC(C5)C3)C4)[nH]c2CCc2ccccc2)c1 [Example 86, 3-[(2-Adamantan-1-ylmethyl-5-phenethyl-1H-imidazole-4-carbonyl)-amino]-benzoic Acid] |
| 1510 | 50.1 | COc1cccc(-c2nc(C(=O)Nc3cccc(C(=O)O)c3)c(CCC3CCCCCC3)[nH]2)c1 [Example 42, 3-{[5-(2-Cycloheptyl-ethyl)-2-(3-methoxy-phenyl)-1H-imidazole-4-carbonyl]-amino}-benzoic Acid] |
| 21.4 | 3.72 | O=C(O)c1cccc(NC(=O)c2nc(C3CCCCC3)[nH]c2CCC2C3CC4CC(C3)CC2C4)c1 (centres unmarked) [Example 172, 3-{[5-(2-Adamantan-2-yl-ethyl)-2-cyclohexyl-1H-imidazole-4-carbonyl]-amino}-benzoic Acid] |
| 6.76 | 501 | Cc1ccccc1-c1nc(C(=O)Nc2cccc(CCC(=O)O)c2)c(CCC23CC4CC(CC(C4)C2)C3)[nH]1 [Example 97, 3-(3-{[5-(2-Adamantan-1-yl-ethyl)-2-o-tolyl-1H-imidazole-4-carbonyl]-amino}-phenyl)-propionic Acid Trifluoroacetic Acid Salt] |
| 331 | 26.3 | O=C(O)c1cccc(NC(=O)c2nc(-c3ccccc3F)[nH]c2CCC23CC4CC(CC(C4)C2)C3)c1 [Example 50, 3-{[5-(2-Adamantan-1-yl-ethyl)-2-(2-fluoro-phenyl)-1H-imidazole-4-carbonyl]-amino}-benzoic Acid] |
| 240 | 18.2 | O=C(O)c1cccc(NC(=O)c2nc(-c3ccccc3C(F)(F)F)[nH]c2CCC23CC4CC(CC(C4)C2)C3)c1 [Example 56, 3-{[5-(2-Adamantan-1-yl-ethyl)-2-(2-trifluoromethyl-phenyl)-1H-imidazole-4-carbonyl]-amino}-benzoic Acid] |
| 5.89 | 6.31 | Cc1ccc(NC(=O)c2nc(-c3ccccc3C)[nH]c2CCC23CC4CC(CC(C4)C2)C3)cc1C(=O)O [Example 106, 5-{[5-(2-Adamantan-1-yl-ethyl)-2-o-tolyl-1H-imidazole-4-carbonyl]-amino}-2-methyl-benzoic Acid] |
| 324 | 25.7 | Cc1ccccc1-c1nc(CCC23CC4CC(CC(C4)C2)C3)c(C(=O)Nc2cccc(C(=O)O)c2)n1C [Example 74, 3-{[5-(2-Adamantan-1-yl-ethyl)-3-methyl-2-o-tolyl-3H-imidazole-4-carbonyl]-amino}-benzoic Acid] |
| 132 | 75.9 | Cc1ccc(NC(=O)c2nc(-c3ccccc3C)[nH]c2CCC2CCCCC2)cc1C(=O)O [Example 169, 5-{[5-(2-Cyclohexyl-ethyl)-2-o-tolyl-1H-imidazole-4-carbonyl]-amino}-2-methyl-benzoic Acid] |
| 38 | 7.08 | O=C(O)c1cccc(NC(=O)c2[nH]c(C3CCCC3)nc2CCC23CC4CC(CC(C4)C2)C3)c1 [Example 196, 3-{[5-(2-Adamantan-1-ethyl)-2-cyclopentyl-1H-imidazole-4-carbonyl]-amino}-benzoic Acid] |
| 8.71 | 4.9 | CC1(c2nc(C(=O)Nc3ccc(F)c(C(=O)O)c3)c(CCC34CC5CC(CC(C5)C3)C4)[nH]2)CCCCC1 [Example 201, 5-{[5-(2-Adamantan-1-yl-ethyl)-2-(1-methyl-cyclohexyl)-1H-imidazole-4-carbonyl]-amino]-2-fluoro-benzoic Acid] |
| 1120 | 1000 | O=C(O)c1cccc(NC(=O)c2cc(-c3ccccc3)[nH]c2CC2CCCCCC2)c1 [Example 12, 3-[(2-Cycloheptylmethyl-5-phenyl-1H-pyrrole-3-carbonyl)-amino]-benzoic Acid] |
| 112 | 28.8 | CC1=C(Cc2nc(C(=O)Nc3cccc(C(=O)O)c3)c(CCC34CC5CC(CC(C5)C3)C4)[nH]2)C(C)(C)CCC1 [Example 202, 3-{[5-(2-Adamantan-1-yl-ethyl)-2-(2,6,6-trimethyl-cyclohex-1-enylmethyl)-1H-imidazole-4-carbonyl]-amino)-benzoic Acid] |
| 191 | 60.3 | CN1CCC[C@@H]1c1nc(C(=O)Nc2cccc(C(=O)O)c2)c(CCC23CC4CC(CC(C4)C2)C3)[nH]1 [Example 143] |
| 158 | 525 | CC(C)C1CCC(c2nc(C(=O)Nc3cccc(C(=O)O)c3)c(CCC34CC5CC(CC(C5)C3)C4)[nH]2)CC1 (centres unmarked) [Example 194, 3-{[5-(2-Adamantan-1-yl-ethyl)-2-(4-isopropyl-cyclohexyl)-1H-imidazole-4-carbonyl]-amino}-benzoic Acid] |
| 251 | 57.5 | O=C(O)c1cccc(NC(=O)c2nc(-c3ccccc3Br)[nH]c2CCC23CC4CC(CC(C4)C2)C3)c1 [Example 59, 3-{[5-(2-Adamantan-1-yl-ethyl)-2-(2-bromo-phenyl)-1H-imidazole-4-carbonyl]-amino}-benzoic Acid] |
| 219 | 380 | O=C(O)c1cc(NC(=O)c2nc(C3CCCCC3)[nH]c2CCC23CC4CC(CC(C4)C2)C3)cc(C(=O)O)c1 [Example 129, 5-{[5-(2-Adamantan-1-yl-ethyl)-2-cyclohexyl-1H-imidazole-4-carbonyl]-amino}-isophthalic Acid] |
| 25.7 | 6.31 | O=C(O)c1cccc(NC(=O)c2nc(C3CC4CCC3C4)[nH]c2CCC23CC4CC(CC(C4)C2)C3)c1 (racemic) [Example 115, (±)-exo-3-{[5-(2-Adamantan-1-yl-ethyl)-2-bicyclo[2.2.1]hept-2-yl-1H-imidazole-4-carbonyl]-amino}-benzoic Acid] |
| 437 | 14.1 | CC(C)CN1CCC[C@@H]1c1nc(C(=O)Nc2cccc(C(=O)O)c2)c(CCC23CC4CC(CC(C4)C2)C3)[nH]1 [Example 144, (R)-3-{[5-(2-Adamantan-1-yl-ethyl)-2-[1-(2-methyl-propyl)-pyrrolidin-2-yl]-1H-imidazole-4-carbonyl]-amino}-benzoic Acid] |
| 83.2 | 10 | Cc1ccc(-c2nc(C(=O)Nc3cccc(C(=O)O)c3)c(CCC34CC5CC(CC(C5)C3)C4)[nH]2)c(C)c1 [Example 67, 3-{[5-(2-Adamantan-1-yl-ethyl)-2-(2,4-dimethyl-phenyl)-1H-imidazole-4-carbonyl]-amino}-benzoic Acid] |
| 91.2 | 41.7 | CC(C)(C)Cc1nc(C(=O)Nc2cccc(C(=O)O)c2)c(CCC23CC4CC(CC(C4)C2)C3)[nH]1 [Example 111, 3-{[5-(2-Adamantan-1-yl-ethyl)-2-(2,2-dimethyl-propyl)-1H-imidazole-4-carbonyl]-amino}-benzoic Acid] |
| 245 | 166 | O=C(O)c1cccc(NC(=O)c2nc(-c3ccccn3)[nH]c2CCC23CC4CC(CC(C4)C2)C3)c1 [Example 178, 3-{[5-(2-Adamantan-1-yl-ethyl)-2-pyridine-2-yl-1H-imidazole-4-carbonyl]-amino}-benzoic Acid] |
| 155 | 11 | O=C(O)c1cccc(NC(=O)c2nc(C3CCCO3)[nH]c2CCC23CC4CC(CC(C4)C2)C3)c1 (centres unmarked) [Example 186, 3-{[5-(2-Adamantan-1-yl-ethyl)-2-(tetrahydro-furan-2-yl)-1H-imidazole-4-carbonyl]-amino}-benzoic Acid] |
| 646 | 229 | O=C(O)c1cccc(NC(=O)c2nc(-c3cccc(F)c3)[nH]c2CCC23CC4CC(CC(C4)C2)C3)c1 [Example 55, 3-{[5-(2-Adamantan-1-yl-ethyl)-2-(3-fluoro-phenyl)-1H-imidazole-4-carbonyl]-amino}-benzoic Acid] |
| 3.98 | 3.98 | Cc1ccc(NC(=O)c2nc(C3CCCCC3)[nH]c2COC23CC4CC(CC(C4)C2)C3)cc1C(=O)O [Example 217, 5-{[5-(Adamantan-1-yloxymethyl)-2-cyclohexyl-1H-imidazole-4-carbonyl]-amino}-2-methyl-benzoic Acid] |
